# Measurements reported in publication PMC5769128, “Human UDP-Glucuronosyltransferase 2B4 and 2B7 Are Responsible for Naftopidil Glucuronidation in Vitro” (Frontiers in Pharmacology, 2018).
# Legend:
# UGT1A1 = molecular target: T1, UGT1A1 (Homo sapiens, UniProt P22309); test: Inhibition screening of recombinant UGTs by NAF enantiomers, UGT1A1 (4-MU); format: in vitro ADME; settings: recombinant UGT1A1, probe 4-MU, 10 μM NAF enantiomer, read-out: Inhibition of 4-MU-G formation
# T1 construct: purchased BD Gentest
# T1 sequence (P22309 26-533): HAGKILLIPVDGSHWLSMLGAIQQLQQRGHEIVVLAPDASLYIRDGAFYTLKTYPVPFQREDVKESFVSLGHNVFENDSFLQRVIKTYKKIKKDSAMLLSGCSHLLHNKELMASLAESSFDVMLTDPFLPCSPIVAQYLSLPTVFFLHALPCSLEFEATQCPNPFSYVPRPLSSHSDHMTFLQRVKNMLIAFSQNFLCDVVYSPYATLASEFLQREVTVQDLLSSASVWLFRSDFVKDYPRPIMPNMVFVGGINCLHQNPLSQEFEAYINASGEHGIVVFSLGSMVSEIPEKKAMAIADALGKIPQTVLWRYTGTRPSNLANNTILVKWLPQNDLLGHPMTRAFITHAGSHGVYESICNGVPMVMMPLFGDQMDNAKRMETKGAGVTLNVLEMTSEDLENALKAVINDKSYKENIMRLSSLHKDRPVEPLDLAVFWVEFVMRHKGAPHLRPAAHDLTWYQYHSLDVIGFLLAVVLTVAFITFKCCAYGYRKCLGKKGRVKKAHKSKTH
# Procedure: (§1) The inhibition screening study was performed by investigating the 12 recombinant UGTs with 10 and 100 μM NAF enantiomer. […] 4-MU, as a non-specific substrate, was added to the other incubated samples. Instead of NAF enantiomers, the same volume of water was added to be the control sample. […] The formation of 4-MU-G and TFP-G produced from the 12 incubation system were analyzed by HPLC. The instrument parameters for the LC were as follows: system, Agilent 1260; Agilent Eclipse Plus C18 (2.1 mm × 50 mm, 1.8 μm, Santa Clara, CA, United States); mobile phase, methanol: 0.1% formic acid in water (0–3 min, 35:65; 3.1–4.5 min, 65:35; 4.6–5 min, 35:65); flow rate, 0.4 mL/min; column temperature, 25°C; and injection volume, 2 μL. The retention times of 4-MU, 4-MU-G, TFP, TFP-G, and MU (IS) were 1.5, 0.5, 2.2, 1.8, and 1.0 min, respectively.
# UGT2B7 [1] = molecular target: T2, UGT2B7 (Homo sapiens, UniProt P16662); test: biochemical
# T2 sequence (P16662 24-529): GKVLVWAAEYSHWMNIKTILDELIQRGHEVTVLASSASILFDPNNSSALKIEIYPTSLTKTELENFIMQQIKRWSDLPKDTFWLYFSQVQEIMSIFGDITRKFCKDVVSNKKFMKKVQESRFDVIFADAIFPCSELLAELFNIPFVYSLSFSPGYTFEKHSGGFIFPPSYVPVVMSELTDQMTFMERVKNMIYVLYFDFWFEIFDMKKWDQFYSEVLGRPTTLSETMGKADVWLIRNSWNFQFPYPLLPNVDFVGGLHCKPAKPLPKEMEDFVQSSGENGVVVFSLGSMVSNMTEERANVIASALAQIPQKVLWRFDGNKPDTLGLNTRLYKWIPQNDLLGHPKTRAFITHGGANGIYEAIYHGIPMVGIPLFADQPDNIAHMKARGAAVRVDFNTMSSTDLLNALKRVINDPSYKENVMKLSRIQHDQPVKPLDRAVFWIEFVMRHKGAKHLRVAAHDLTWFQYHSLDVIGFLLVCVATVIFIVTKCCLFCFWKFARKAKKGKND
# Procedure: (§2) The inhibition of UGT1A9 and UGT2B7 by NAF enantiomer was investigated using the pooled HLM, UGT1A9, and UGT2B7 with concentrations similar to that of the NAF enantiomer. Propofol, which was used as the specific substrate of UGT1A9, was added to the incubation. […] Inhibitor constants (Ki value) were estimated by fitting the expressions for competitive, non-competitive, and mixed inhibition models with Dixon plots and Lineweaver–Burk plots.
# UGT2B7 [2] = molecular target: T2, UGT2B7; test: Kinetics of NAF enantiomer glucuronidation by recombinant UGT2B7; format: in vitro ADME; parameters: purchased BD Gentest
# Procedure: All glucuronidation assays were conducted in an incubation volume of 200 μL. Incubations were performed at 37°C in 50 mM Tris–HCl buffer (pH 7.5) with 10 mM magnesium chloride, 1 mg protein/mL of enzyme (microsomes and recombinant human UGTs), alamethicin (100 μg of alamethicin/mg microsomal protein), and NAF enantiomers (2.5–80 μM). The reaction was initiated by the addition of UDPGA (5 mM) and incubated at 37°C in a shaking water bath for 45 min. The reaction was terminated by the addition of 200 μL of ice-cold acetonitrile containing the IS (1 μM) and then centrifuged at 5000 ×g for 10 min at 4°C. The supernatant fraction was injected into the RRLC-MS/MS apparatus. Protein concentration (0.5–2 mg/mL) and incubation time (15–180 min) were optimized in preliminary studies to be within initial linear rate conditions.
# Kinetic parameters were assessed in the HLM, RLM, HKM, RKM, and recombinant human UGTs (UGT2B4, 2B7, and 1A9).
# UGT2B7 [3] = molecular target: T2, UGT2B7; test: Inhibition screening of recombinant UGTs by NAF enantiomers, UGT2B7 (4-MU); format: in vitro ADME; parameters: purchased BD Gentest; settings: recombinant UGT2B7, probe 4-MU, read-out: Inhibition of 4-MU-G formation; for inhibition at 10 μM: 10 μM NAF enantiomer; for inhibition at 100 μM: 100 μM NAF enantiomer
# Procedure: as §1
# UGT2B7 [4] = molecular target: T2, UGT2B7; settings: substrate zidovudine, enzyme UGT2B7
# Procedure: as §2
# UGT2B17 = molecular target: T3, UGT2B17 (Homo sapiens, UniProt O75795); test: Inhibition screening of recombinant UGTs by NAF enantiomers, UGT2B17 (4-MU); format: in vitro ADME; settings: recombinant UGT2B17, probe 4-MU, 100 μM NAF enantiomer, read-out: Inhibition of 4-MU-G formation
# T3 construct: purchased BD Gentest
# T3 sequence (O75795 24-530): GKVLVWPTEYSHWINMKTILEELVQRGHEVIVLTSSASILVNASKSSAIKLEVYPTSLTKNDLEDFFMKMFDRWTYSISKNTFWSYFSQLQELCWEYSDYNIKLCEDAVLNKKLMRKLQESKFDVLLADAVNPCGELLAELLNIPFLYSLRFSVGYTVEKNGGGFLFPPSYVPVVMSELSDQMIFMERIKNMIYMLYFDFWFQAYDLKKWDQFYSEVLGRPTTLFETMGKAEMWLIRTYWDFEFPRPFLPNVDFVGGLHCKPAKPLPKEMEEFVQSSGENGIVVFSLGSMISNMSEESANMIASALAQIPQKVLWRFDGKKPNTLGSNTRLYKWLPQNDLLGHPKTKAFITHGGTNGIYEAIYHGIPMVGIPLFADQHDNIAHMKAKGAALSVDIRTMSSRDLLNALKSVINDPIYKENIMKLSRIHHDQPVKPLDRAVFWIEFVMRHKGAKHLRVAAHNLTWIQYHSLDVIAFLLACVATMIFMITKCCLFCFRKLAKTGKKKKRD
# Procedure: as §1
# [5] = system: UGT1A1, 1A4, 1A3, 2B17, 1A8, 2B15, and 1A7; test: UGT reaction screening of R(+)-NAF, minor isoforms; format: in vitro ADME, human; settings: 10 μM substrate, 45 min
# [6] = system: UGT1A4, 1A3, 2B17, 2B15, 1A9, 1A8, and 1A7; test: UGT reaction screening of S(-)-NAF, minor isoforms; format: in vitro ADME, human; settings: 10 μM substrate, 45 min
Compound,inhibition at 10 μM (UGT1A1),Ki (UGT2B7 [1]),Kinetics type (UGT2B7 [2]),inhibition at 10 μM (UGT2B7 [3]),inhibition at 100 μM (UGT2B7 [3]),Inhibition type (UGT2B7 [4]),inhibition at 100 μM (UGT2B17),"Glucuronidation activity, times lower than UGT2B7 [5]",Glucuronidation activity [6]
COc1ccccc1N1CCN(C[C@@H](O)COc2cccc3ccccc23)CC1 [R(+)-NAF],> 50%,12.1 ± 2.2 µM,substrate inhibition model,> 50%,> 75%,Competitive,> 75%,more than 10 times,
COc1ccccc1N1CCN(C[C@H](O)COc2cccc3ccccc23)CC1 [S(-)-NAF],> 50%,18.5 ± 3.3 µM,substrate inhibition model,> 50%,> 75%,Competitive,> 75%,,a small amount of activity
